This passage reports inhibition of growth and pest or weed control results from US11524934B2, “Phenylamine compounds” (PI INDUSTRIES LTD., priority 2017, dated 2022).

One experiment relates to Pyricularia oryzae. Briefly: microbe, parasite or virus in culture. Type of experiment: cell-based. As to conditions: 168 h, read-out: control.
A further experiment concerns Fusarium culmorum. Kind of experiment: Fusarium culmorum (Foot rot of cereals) in vitro test, radial growth on Potato Dextrose Agar. Type of experiment: cell-based. The note with it: 168 h, read-out: control.
The subject of the next experiment is Botrytis cinerea. Kind of experiment: Botrytis cinerea (Gray mold) in vitro test, radial growth on Potato Dextrose Agar. The note with it: 168 h, read-out: control.
For another experiment, the system named is Colletotrichum capsici. Kind of experiment: Colletotrichum capsici (anthracnose) in vitro test, radial growth on Potato Dextrose Agar. The note with it: Colletotrichum truncatum, 168 h, read-out: control.
A further experiment concerns Septoria lycopersici. Kind of experiment: Septoria lycopersici (Leaf spot of tomato) in vitro test, radial growth on Potato Dextrose Agar. The note with it: 168 h, read-out: control.
Another experiment concerns Alternaria solani. Briefly: Alternaria solani (early blight of tomato/potato) in vitro test, radial growth on Potato Dextrose Agar. The note with it: 168 h, read-out: control.
For another experiment, the system named is Rhizoctonia solani. As to conditions: 168 h, read-out: control.
In another experiment the test system is Phakopsora pachyrhizi. Kind of experiment: Phakopsora pachyrhizi test in soybean (in vivo on plants), preventive activity. As to conditions: preventive spray on soybean plants, inoculated one day after treatment, disease severity rated vs untreated check. The method, then: Example 8 (In Vivo on Plants): Phakopsora pachyrhizi Test in Soybean
Compounds were dissolved in 2% DMSO/Acetone & then mixed with water to the calibrated spray volume of 50 ml and poured into the spray bottles for further applications.
To test the preventive activity of compounds, healthy young soybean plants raised in the greenhouse were sprayed with active compound preparation at the stated application rates inside the spray cabinets using hallowcone nozzles. One day after treatment, the plants were inoculated with spore suspension containing 2.1×10^6 Phakopsora pachyrhizi inoculum. The inoculated plants were then kept in greenhouse chamber at 25° C. temperature & 90% Relative Humidity for disease expression.
A visual assessment of compound's performance was carried out by rating the disease severity (0-100% scale) on treated plants on 3, 7, 10 & 15 days after application. Efficacy (% control) of the compounds was calculated by comparing the disease rating in the treatment with the one of the untreated control. The sprayed plants were also assessed for compound's plant compatibility by recording symptoms like necrosis, chlorosis & stunting.

Description for Alternaria solani: (§1) Compounds of present invention were assessed for activity against one or more of the following: Biological Test Examples, in vitro test
Description for Botrytis cinerea: as §1
Botrytis cinerea (Gray mold): Compounds were dissolved in 0.3% DMSO & then added to Potato Dextrose Agar medium just prior to dispensing it into Petri dishes. 5 ml medium with compound in the desired concentration was dispensed into 60 mm sterile Petri-plates. After solidification each plate was seeded with 5 mm size mycelial disc taken form periphery of actively growing virulent culture plate. Plates were incubated in growth chambers at 22° C. temperature & 90% Relative Humidity for seven days and radial growth was measured.
Description for Colletotrichum capsici: Colletotrichum capsici (anthracnose): Compounds were dissolved in 0.3% DMSO & then added to Potato Dextrose Agar medium just prior to dispensing it into Petri dishes. 5 ml medium with compound in the desired concentration was dispensed into 60 mm sterile petri-plates. After solidification each plate was seeded with 5 mm size mycelial disc taken form periphery of actively growing virulent culture plate. Plates were incubated in growth chambers at 25° C. temperature & 60% Relative Humidity for seven days and radial growth was measured.
Description for Rhizoctonia solani: Rhizoctonia solani (Rice sheath blight/Potato black scurf): Compounds were dissolved in 0.3% DMSO & then added to Potato Dextrose Agar medium just prior to dispensing it into Petri dishes. 5 ml medium with compound in the desired concentration was dispensed into 60 mm sterile Petri-plates. After solidification each plate was seeded with 5 mm size mycelial disc taken form periphery of actively growing virulent culture plate. Plates were incubated in growth chambers at 25° C. temperature & 60% Relative Humidity for seven days and radial growth was measured.
Description for Septoria lycopersici: Septoria lycopersici (Leaf spot of tomato): Compounds were dissolved in 0.3% DMSO & then added to Potato Dextrose Agar medium just prior to dispensing it into Petri dishes. 5 ml medium with compound in the desired concentration was dispensed into 60 mm sterile petri-plates. After solidification each plate was seeded with 5 mm size mycelial disc taken form periphery of actively growing virulent culture plate. Plates were incubated in growth chambers at 25° C. temperature & 70% Relative Humidity for seven days and radial growth was measured.

Take `CCN(C)C=Nc1cc(C)c(C(=O)CN(C)c2ccc(Cl)cc2)cc1C` [Compound 84, N′-(4-(N-(4-chlorophenyl)-N-methylglycyl)-2,5-dimethylphenyl)-N-ethyl-N-methylformimidamide]: the inhibition of growth at 300 ppm is over 70% in the experiment with Pyricularia oryzae; 70% with Fusarium culmorum; over 70% with Botrytis cinerea; over 70% in the experiment with Colletotrichum capsici; over 70% with Septoria lycopersici; over 70% with Alternaria solani. Further, the inhibition of growth at 300 ppm in the experiment with Rhizoctonia solani is over 70%.

Take `CCN(C)C=Nc1cc(C)c(C(=O)CSc2c(F)cccc2F)cc1C` [Compound 103, N′-(4-(2-((2,6-difluorophenyl)thio)acetyl)-2,5-dimethylphenyl)-N-ethyl-N-methylformimidamide]: the inhibition of growth at 300 ppm with Pyricularia oryzae was over 70%; in the experiment with Fusarium culmorum, 70%; with Botrytis cinerea, over 70%; with Colletotrichum capsici it was over 70%; in the experiment on Septoria lycopersici it was over 70%; in the experiment with Alternaria solani it was over 70%. Further, the inhibition of growth at 300 ppm in the experiment with Rhizoctonia solani was over 70%.

Consider `CCN(C)C=Nc1cc(C)c(C(=O)CSc2ccc(C)c(C)c2)cc1C` [Compound 11, N′-(4-(2-((3,4-dimethylphenyl)thio)acetyl)-2,5-dimethylphenyl)-N-ethyl-N-methylformimidamide], for which the inhibition of growth at 300 ppm is over 70% in the experiment on Pyricularia oryzae; 70% in the experiment with Fusarium culmorum; over 70% in the experiment on Botrytis cinerea; over 70% in the experiment on Colletotrichum capsici; over 70% in the experiment with Septoria lycopersici; over 70% in the experiment with Alternaria solani. Also, in the experiment on Rhizoctonia solani, the inhibition of growth at 300 ppm was over 70%. This molecule also yielded a pest or weed control at 500 ppm with Phakopsora pachyrhizi of over 90%.

Take `CCN(C)C=Nc1cc(C)c(C(=O)COc2cccc(Cl)c2)cc1C` [Compound 13, N′-(4-(2-(3-chlorophenoxy)acetyl)-2,5-dimethylphenyl)-N-ethyl-N-methylformimidamide]: the inhibition of growth at 300 ppm is over 70% in the experiment on Pyricularia oryzae; 70% in the experiment with Fusarium culmorum; over 70% in the experiment on Botrytis cinerea; over 70% with Colletotrichum capsici; over 70% in the experiment with Septoria lycopersici; over 70% in the experiment on Alternaria solani. The inhibition of growth at 300 ppm with Rhizoctonia solani is over 70%. The molecule further displayed a pest or weed control at 500 ppm in the experiment with Phakopsora pachyrhizi of over 90%.

`CCN(C)C=Nc1cc(C)c(C(=O)CSc2cccc(C)c2)cc1C` [Compound 5, N′-(2,5-dimethyl-4-(2-(m-tolylthio)acetyl)phenyl)-N-ethyl-N-methylformimidamide]: the inhibition of growth at 300 ppm in the experiment with Pyricularia oryzae was over 70%; in the experiment on Fusarium culmorum, 70%; in the experiment with Botrytis cinerea, over 70%; with Colletotrichum capsici, over 70%; with Septoria lycopersici, over 70%; with Alternaria solani, over 70%.

In the case of `CCN(C)C=Nc1cc(C)c(C(=O)CSc2ccc(F)cc2)cc1C` [Compound 28, N-ethyl-N′-(4-(2-((4-fluorophenyl)thio)acetyl)-2,5-dimethylphenyl)-N-methylformimidamide], the inhibition of growth at 300 ppm with Pyricularia oryzae is over 70%; with Fusarium culmorum, 70%; in the experiment with Botrytis cinerea, over 70%; in the experiment on Colletotrichum capsici it was over 70%; in the experiment on Septoria lycopersici, over 70%; with Alternaria solani, over 70%. Further, in the experiment on Rhizoctonia solani, the inhibition of growth at 300 ppm was over 70%.

Regarding `CCN(C)C=Nc1cc(C)c(C(=O)COc2cccc(C)c2)cc1C` [Compound 12, N′-(2,5-dimethyl-4-(2-(m-tolyloxy)acetyl)phenyl)-N-ethyl-N-methylformimidamide], the inhibition of growth at 300 ppm in the experiment on Pyricularia oryzae was over 70%; in the experiment with Fusarium culmorum, 70%; in the experiment on Botrytis cinerea, over 70%; with Colletotrichum capsici, over 70%; in the experiment with Septoria lycopersici, over 70%; in the experiment with Alternaria solani, over 70%. For the same molecule, in the experiment on Rhizoctonia solani, the inhibition of growth at 300 ppm is over 70%. The same molecule gave a pest or weed control at 500 ppm in the experiment on Phakopsora pachyrhizi of over 90%.

For the molecule `CCN(C)C=Nc1cc(C)c(C(=O)CSc2ccc(F)cc2F)cc1C` [Compound 102, N′-(4-(2-((2,4-difluorophenyl)thio)acetyl)-2,5-dimethylphenyl)-N-ethyl-N-methylformimidamide], the inhibition of growth at 300 ppm in the experiment on Pyricularia oryzae was over 70%; in the experiment with Fusarium culmorum it was 70%; in the experiment with Botrytis cinerea, over 70%; in the experiment on Colletotrichum capsici, over 70%; in the experiment on Septoria lycopersici it was over 70%; with Alternaria solani it was over 70%. The inhibition of growth at 300 ppm in the experiment with Rhizoctonia solani was over 70%.

As to `CCN(C)C=Nc1cc(C)c(C(=O)COc2ccccc2)cc1C` [Compound 2, N′-(2,5-dimethyl-4-(2-phenoxyacetyl)phenyl)-N-ethyl-N-methylformimidamide], the inhibition of growth at 300 ppm with Pyricularia oryzae is over 70%; with Fusarium culmorum, 70%; in the experiment on Botrytis cinerea, over 70%; in the experiment on Colletotrichum capsici, over 70%; with Septoria lycopersici, over 70%; in the experiment on Alternaria solani, over 70%. In addition, the inhibition of growth at 300 ppm with Rhizoctonia solani is over 70%. The molecule also had a pest or weed control at 500 ppm in the experiment with Phakopsora pachyrhizi of over 90%.

With `CCN(C)C=Nc1cc(C)c(C(=O)COc2c(C)cccc2Br)cc1C` [Compound 88, N′-(4-(2-(2-bromo-6-methylphenoxy)acetyl)-2,5-dimethylphenyl)-N-ethyl-N-methylformimidamide], the inhibition of growth at 300 ppm in the experiment with Pyricularia oryzae was over 70%; in the experiment with Fusarium culmorum, 70%; with Botrytis cinerea, over 70%; with Colletotrichum capsici, over 70%; with Septoria lycopersici, over 70%; with Alternaria solani, over 70%. Besides, the inhibition of growth at 300 ppm with Rhizoctonia solani is over 70%.
